In PubChem BioAssay (NCI):
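These data come from cells grown in 96-well plates and exposed to compound for 48 hours at five concentrations. At the TGI there is no net growth.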

Experiments:
Assay in all cases: growth of human tumour cells (NCI), 48 h
MALME-3M melanoma = system: MALME-3M melanoma
A549 NSCLC = system: A549 NSCLC
NCI-H522 lung = system: NCI-H522 lung
NCI-H460 lung = system: NCI-H460 lung
HCC-2998 colon = system: HCC-2998 colon
SNB-75 CNS = system: SNB-75 CNS
MOLT-4 leukemia = system: MOLT-4 leukemia
RPMI-8226 leukemia = system: RPMI-8226 leukemia
UACC-257 melanoma = system: UACC-257 melanoma
SN12C renal = system: SN12C renal
OVCAR-5 ovarian = system: OVCAR-5 ovarian
U251 CNS = system: U251 CNS
M19-MEL melanoma = system: M19-MEL melanoma
SNB-19 CNS = system: SNB-19 CNS
HCT-15 colon = system: HCT-15 colon
SW-620 colon = system: SW-620 colon
786-0 renal = system: 786-0 renal
SK-MEL-28 melanoma = system: SK-MEL-28 melanoma
K-562 leukemia = system: K-562 leukemia
COLO 205 colon = system: COLO 205 colon
SF-295 CNS = system: SF-295 CNS
A498 renal = system: A498 renal
HOP-18 NSCLC = system: HOP-18 NSCLC
SF-539 CNS = system: SF-539 CNS
SF-268 CNS = system: SF-268 CNS
OVCAR-4 ovarian = system: OVCAR-4 ovarian
CCRF-CEM leukemia = system: CCRF-CEM leukemia
DLD-1 colon = system: DLD-1 colon
LXFL 529 NSCLC = system: LXFL 529 NSCLC
SK-MEL-2 melanoma = system: SK-MEL-2 melanoma
HCT-116 colon = system: HCT-116 colon
EKVX NSCLC = system: EKVX NSCLC
DMS 114 small cell lung = system: DMS 114 small cell lung
RXF-631 renal = system: RXF-631 renal
NCI-H23 lung = system: NCI-H23 lung
IGROV1 ovarian = system: IGROV1 ovarian
KM12 colon = system: KM12 colon
ACHN renal = system: ACHN renal
M14 melanoma = system: M14 melanoma
SNB-78 CNS = system: SNB-78 CNS
HOP-62 NSCLC = system: HOP-62 NSCLC
HL-60(TB) leukemia = system: HL-60(TB) leukemia
RXF 393 renal = system: RXF 393 renal
UACC-62 melanoma = system: UACC-62 melanoma
UO-31 renal = system: UO-31 renal
HT29 colon = system: HT29 colon
SK-MEL-5 melanoma = system: SK-MEL-5 melanoma
HOP-92 NSCLC = system: HOP-92 NSCLC
KM20L2 colon = system: KM20L2 colon
MDA-MB-231 breast = system: MDA-MB-231 breast
LOX IMVI melanoma = system: LOX IMVI melanoma
TK-10 renal = system: TK-10 renal
SR leukemia = system: SR leukemia
DU-145 prostate = system: DU-145 prostate
MDA-N = system: MDA-N
CAKI-1 renal = system: CAKI-1 renal
BT-549 breast = system: BT-549 breast
DMS 273 small cell lung = system: DMS 273 small cell lung
MDA-MB-435 = system: MDA-MB-435
T-47D breast = system: T-47D breast
HS 578T breast = system: HS 578T breast
OVCAR-3 ovarian = system: OVCAR-3 ovarian
XF 498 CNS = system: XF 498 CNS
NCI-H226 lung = system: NCI-H226 lung
MCF7 breast = system: MCF7 breast
NCI/ADR-RES ovarian = system: NCI/ADR-RES ovarian
PC-3 prostate = system: PC-3 prostate
SK-OV-3 ovarian = system: SK-OV-3 ovarian
OVCAR-8 ovarian = system: OVCAR-8 ovarian

O=C1OC(c2ccccc2)=N/C1=C\c1cc(Cl)ccc1Cl
TGI (MALME-3M melanoma): > 100 µM
TGI (A549 NSCLC): > 100 µM
TGI (NCI-H522 lung): > 100 µM
TGI (NCI-H460 lung): > 100 µM
TGI (HCC-2998 colon): > 100 µM
TGI (SNB-75 CNS): 36.3 µM
TGI (MOLT-4 leukemia): 53.7 µM
TGI (RPMI-8226 leukemia): > 100 µM
TGI (UACC-257 melanoma): > 100 µM
TGI (SN12C renal): > 100 µM
TGI (OVCAR-5 ovarian): > 100 µM
TGI (U251 CNS): > 100 µM
TGI (M19-MEL melanoma): > 100 µM
TGI (SNB-19 CNS): > 100 µM
TGI (HCT-15 colon): 82.9 µM
TGI (SW-620 colon): > 100 µM
TGI (786-0 renal): > 100 µM
TGI (SK-MEL-28 melanoma): > 100 µM
TGI (K-562 leukemia): > 100 µM
TGI (COLO 205 colon): > 100 µM
TGI (SF-295 CNS): > 100 µM
TGI (A498 renal): > 100 µM
TGI (HOP-18 NSCLC): > 100 µM
TGI (SF-539 CNS): > 100 µM
TGI (SF-268 CNS): > 100 µM
TGI (OVCAR-4 ovarian): > 100 µM
TGI (CCRF-CEM leukemia): 66.8 µM
TGI (DLD-1 colon): > 100 µM
TGI (LXFL 529 NSCLC): 86 µM
TGI (SK-MEL-2 melanoma): > 100 µM
TGI (HCT-116 colon): > 100 µM
TGI (EKVX NSCLC): > 100 µM
TGI (DMS 114 small cell lung): > 100 µM
TGI (RXF-631 renal): > 100 µM
TGI (NCI-H23 lung): > 100 µM
TGI (IGROV1 ovarian): > 100 µM
TGI (KM12 colon): > 100 µM
TGI (ACHN renal): > 100 µM
TGI (M14 melanoma): > 100 µM
TGI (SNB-78 CNS): > 100 µM
TGI (HOP-62 NSCLC): > 100 µM
TGI (HL-60(TB) leukemia): 35.3 µM
TGI (RXF 393 renal): > 100 µM
TGI (UACC-62 melanoma): > 100 µM
TGI (UO-31 renal): > 100 µM
TGI (HT29 colon): > 100 µM
TGI (SK-MEL-5 melanoma): > 100 µM
TGI (HOP-92 NSCLC): > 100 µM
TGI (KM20L2 colon): > 100 µM

CNC(=O)NC(CCCCNC(=O)OCc1ccccc1)C(=O)OCc1ccccc1 (stereo unspecified)
TGI (MDA-MB-231 breast): > 73.9 µM
TGI (LOX IMVI melanoma): > 78.2 µM
TGI (MALME-3M melanoma): 64.9 µM
TGI (A549 NSCLC): > 100 µM
TGI (TK-10 renal): 99 µM
TGI (NCI-H522 lung): 21.4 µM
TGI (NCI-H460 lung): > 100 µM
TGI (HCC-2998 colon): > 72.9 µM
TGI (SNB-75 CNS): 43.9 µM
TGI (MOLT-4 leukemia): 58.7 µM
TGI (RPMI-8226 leukemia): 67.4 µM
TGI (UACC-257 melanoma): 36.8 µM
TGI (SN12C renal): > 84.6 µM
TGI (OVCAR-5 ovarian): 98.2 µM
TGI (U251 CNS): > 97.1 µM
TGI (M19-MEL melanoma): 40.7 µM
TGI (SNB-19 CNS): > 100 µM
TGI (SR leukemia): 99.5 µM
TGI (HCT-15 colon): > 100 µM
TGI (SW-620 colon): > 100 µM
TGI (786-0 renal): > 100 µM
TGI (DU-145 prostate): > 100 µM
TGI (SK-MEL-28 melanoma): 41.5 µM
TGI (MDA-N): 44 µM
TGI (K-562 leukemia): 89.4 µM
TGI (COLO 205 colon): 34.2 µM
TGI (CAKI-1 renal): > 80.2 µM
TGI (SF-295 CNS): > 100 µM
TGI (A498 renal): 71.4 µM
TGI (SF-539 CNS): 49.9 µM
TGI (BT-549 breast): > 100 µM
TGI (SF-268 CNS): > 100 µM
TGI (OVCAR-4 ovarian): > 100 µM
TGI (CCRF-CEM leukemia): 71.8 µM
TGI (DLD-1 colon): > 100 µM
TGI (LXFL 529 NSCLC): > 100 µM
TGI (DMS 273 small cell lung): > 100 µM
TGI (MDA-MB-435): 39.5 µM
TGI (T-47D breast): 51.3 µM
TGI (SK-MEL-2 melanoma): 38.4 µM
TGI (HCT-116 colon): > 100 µM
TGI (HS 578T breast): > 100 µM
TGI (OVCAR-3 ovarian): 57.9 µM
TGI (XF 498 CNS): 31.8 µM
TGI (EKVX NSCLC): > 100 µM
TGI (DMS 114 small cell lung): 85.4 µM
TGI (NCI-H226 lung): > 88.6 µM
TGI (NCI-H23 lung): > 100 µM
TGI (MCF7 breast): > 100 µM
TGI (IGROV1 ovarian): > 100 µM
TGI (KM12 colon): > 100 µM
TGI (ACHN renal): > 100 µM
TGI (M14 melanoma): 43 µM
TGI (SNB-78 CNS): > 91.7 µM
TGI (HOP-62 NSCLC): > 100 µM
TGI (NCI/ADR-RES ovarian): > 100 µM
TGI (HL-60(TB) leukemia): 65.6 µM
TGI (PC-3 prostate): > 100 µM
TGI (RXF 393 renal): 53.6 µM
TGI (UACC-62 melanoma): 33.1 µM
TGI (UO-31 renal): 98.3 µM
TGI (SK-OV-3 ovarian): > 100 µM
TGI (HT29 colon): > 100 µM
TGI (SK-MEL-5 melanoma): 31.5 µM
TGI (OVCAR-8 ovarian): > 87.5 µM
TGI (HOP-92 NSCLC): 45.3 µM
TGI (KM20L2 colon): > 100 µM
